Tests used:
[1] = Stability study: storage in a sealed reagent bottle at -20° C for three months (description, water content, HPLC purity, XRPD); assay type: physicochemical; parameters: HPLC impurity at RRT 0.07 / HPLC impurity at RRT 0.20 / HPLC impurity at RRT 0.85 / HPLC impurity at RRT 0.98 / HPLC impurity at RRT 1.02 / HPLC impurity at RRT 1.07 / HPLC impurity at RRT 1.17 / HPLC impurity at RRT 1.23 / HPLC impurity at RRT 1.31 / HPLC impurity at RRT 1.38 / HPLC impurity at RRT 1.41: unit not given here
Procedure: An appropriate amount of the sample of the amorphous as well as RK-1 polymorphic form of Lurbinectedin obtained in examples 5 to 9 was placed in a reagent bottle at-20° C. under a sealed condition for the period of three months to perform a stability test. X-ray powder diffraction pattern, HPLC purity as well as DSC Chromatogram of amorphous as well as RK-1 polymorphic form of Lurbinectedin was evaluated again after storing for period of 3 months. Result of the stability study of both amorphous (Obtained in Example 5) as well as RK-1 polymorphic form of Lurbinectedin (Obtained in Example 6) has been tabulated in Tables 1-2 given below. […] Characteristic peaks in the XRPD pattern and DSC chromatogram of RK-1 polymorphic form of Lurbinectedin obtained initially as well as after storing for the period of three months have been tabulated in Table 3 given below.

[2] = Chemical stability under long term and accelerated storage conditions; assay type: physicochemical
[3] = at 3 months (A/3M), -20° C, sealed

| HPLC impurity at RRT 0.07 [1, 3] | HPLC impurity at RRT 0.20 [1, 3] | HPLC impurity at RRT 0.85 [1, 3] | HPLC impurity at RRT 0.98 [1, 3] | HPLC impurity at RRT 1.02 [1, 3] | HPLC impurity at RRT 1.07 [1, 3] | HPLC impurity at RRT 1.31 [1, 3] | HPLC impurity at RRT 1.38 [1, 3] | HPLC impurity at RRT 1.41 [1, 3] | HPLC purity, LRBN [1, 3] [%] | Description ([1]; at 3 months, -20° C, sealed) | Water content ([1]; at 3 months, -20° C, sealed) [%] | Description ([1]; initial) | HPLC impurity at RRT 0.20 ([1]; initial) | HPLC impurity at RRT 0.98 ([1]; initial) | HPLC impurity at RRT 1.07 ([1]; initial) | HPLC impurity at RRT 1.17 ([1]; initial) | HPLC impurity at RRT 1.23 ([1]; initial) | HPLC impurity at RRT 1.31 ([1]; initial) | HPLC purity, LRBN ([1]; initial) [%] | SMILES | also measured |
| --- | --- | --- | --- | --- | --- | --- | --- | --- | --- | --- | --- | --- | --- | --- | --- | --- | --- | --- | --- | --- | --- |
| 0.06 | 0.02 | 0.01 | 0.03 | 0.05 | 0.02 | 0.02 | 0.01 | 0.01 | 99.77 | Off white | 10.1 | Off white | 0.03 | 0.03 | 0.02 | 0.04 | 0.03 | 0.02 | 99.86 | COc1ccc2[nH]c3c(c2c1)CCN[C@]31CS[C@@H]2c3c(OC(C)=O)c(C)c4c(c3[C@H](COC1=O)N1[C@@H]2[C@H]2c3c(cc(C)c(OC)c3O)C[C@@H]([C@@H]1O)N2C)OCO4 [polymorphic form RK-1 of Lurbinectedin, Lurbinectedin] | Description ([1]; after 1 month, -20° C, sealed): Off white powder; Description ([1]; at 3 months, -20° C, sealed, listed as RK-1 polymorphic form of Lurbinectedin): Off white powder; Water content ([1]; initial): 9.69%; Description ([1]; initial, listed as RK-1 polymorphic form of Lurbinectedin): Off white powder; Stability on storage (XRPD pattern after three months same as obtained initially) ([1]; -20° C, sealed): stable on storage |
| 0.06 | 0.02 | 0.01 | 0.03 | 0.05 | 0.02 | 0.02 | 0.01 | 0.01 | 99.77 | Off white | 9.91 | Off white | 0.02 | 0.03 | 0.02 | 0.04 | 0.03 | 0.02 | 99.81 | COc1ccc2[nH]c3c(c2c1)CCN[C@]31CS[C@@H]2c3c(OC(C)=O)c(C)c4c(c3[C@H](COC1=O)N1[C@@H]2[C@H]2c3c(cc(C)c(OC)c3O)C[C@@H]([C@@H]1O)N2C)OCO4 [Amorphous form of Lurbinectedin, Lurbinectedin] | Water content ([1]; initial): 9.67%; Stability on storage (XRPD pattern after three months same as obtained initially) ([1]; -20° C, sealed): stable on storage |
| – | – | – | – | – | – | – | – | – | – | – | – | – | – | – | – | – | – | – | – | COc1ccc2[nH]c3c(c2c1)CCN[C@]31CS[C@@H]2c3c(OC(C)=O)c(C)c4c(c3[C@H](COC1=O)N1[C@@H]2[C@H]2c3c(cc(C)c(OC)c3O)C[C@@H]([C@@H]1O)N2C)OCO4 [Pure Lurbinectedin, Lurbinectedin] | Period for which chemically stable [2]: about 6 months |
